US9090647B2, “Crystalline forms of rebaudioside B” (CARGILL, INCORPORATED, priority 2010, dated 2015)
Converted amounts (≈) assume the structure as drawn. Read-outs that look alike come from different tables or passages of the source.

Test: Solubility of rebaudioside B crystal polymorphs by incremental addition to solvent in a temperature controlled stirred vessel, visual determination
Assay type: physicochemical
Settings: for solubility: 25 °C, thermodynamic from solid; for solubility / solubility in ethanol / solubility in water: 25° C.
Protocol: The solubility of each of the four crystal polymorphs of rebaudioside B was determined in the following manner. Experiments were conducted using a known volume of solvent in a temperature controlled stirred vessel. The amount of solvent used was either 1 mL or 2 mL. Rebaudioside B was added to the solvent in the temperature controlled stirred vessel in 0.5 mg increments and held to visually determine if it dissolved. If the first 0.5 mg increment dissolved, another 0.5 mg increment was added and again held to visually determine if it dissolved. […] Each incremental addition of rebaudioside B was allowed a maximum of 1 hour to dissolve (if dissolution took place more quickly it was not necessary to wait the full 1 hour).

solubility (95% ethanol/5% water solution, organic solvent or mixture, 95% ethanol/5% water solution, read-out: solubility in a 95% ethanol/5% water solution) | solubility in ethanol (in words) | solubility in ethanol | solubility in an ethanol/water mixture (in words) (ethanol/water mixture) | solubility in water (in words) (water) | solubility (water, water, water, read-out: solubility in water) | solubility in water (water) | Structure (SMILES)
~28 mg/mL (≈ 34.8 mM) | moderate | about 8.3 mg/mL | high | low | < 0.5 mg/mL |  | C=C1C[C@@]23CC[C@H]4[C@@](C)(CCC[C@@]4(C)C(=O)O)[C@@H]2CC[C@]1(O[C@@H]1O[C@H](CO)[C@@H](O)[C@H](O[C@@H]2O[C@H](CO)[C@@H](O)[C@H](O)[C@H]2O)[C@H]1O[C@@H]1O[C@H](CO)[C@@H](O)[C@H](O)[C@H]1O)C3 [Form 1, rebaudioside B]
 | moderate | about 10 mg/mL |  | low |  | less than 0.5 mg/mL | C=C1C[C@@]23CC[C@H]4[C@@](C)(CCC[C@@]4(C)C(=O)O)[C@@H]2CC[C@]1(O[C@@H]1O[C@H](CO)[C@@H](O)[C@H](O[C@@H]2O[C@H](CO)[C@@H](O)[C@H](O)[C@H]2O)[C@H]1O[C@@H]1O[C@H](CO)[C@@H](O)[C@H](O)[C@H]1O)C3 [Form 3, rebaudioside B]
 | low | about 2.7 mg/mL |  | low |  | less than 0.5 mg/mL | C=C1C[C@@]23CC[C@H]4[C@@](C)(CCC[C@@]4(C)C(=O)O)[C@@H]2CC[C@]1(O[C@@H]1O[C@H](CO)[C@@H](O)[C@H](O[C@@H]2O[C@H](CO)[C@@H](O)[C@H](O)[C@H]2O)[C@H]1O[C@@H]1O[C@H](CO)[C@@H](O)[C@H](O)[C@H]1O)C3 [Form 2, rebaudioside B]
